Tested on: HBV
Experiment: HBV-DNA Antiviral Assay Using HepG2.117 Cells (intracellular HBV DNA by qPCR)
Assay type: cell-based, hepatitis B virus (genotype D)
Details: Hepatitis B virus, HepG2.117
Protocol: The following assay procedure describes the HBV antiviral assay, using HepG2.117 cells, which carry a stably integrated genotype D HBV genome under the control of a Tet-off promoter, and intracellular HBV DNA quantification as endpoint. Cell viability is assessed in parallel by measuring the intracellular ATP content using ATPlite (Perkin Elmer).
On day 0, HepG2.117 cells (which are maintained in routine cell culture with doxycycline present in the medium at a final concentration of 1 μg/mL) were seeded in 96-well plates (white with clear bottom) at a density of 2.0×10^4 cells/well (0.1 mL/well) in medium without doxycycline to induce pgRNA transcription and subsequent formation of HBV particles. The cells were incubated at 37° C. and 5% CO2.
On day 1, medium was removed from each well, the test articles were diluted in culture medium without doxcycyline and 100 μL was added to cell culture wells (9 concentrations, 4-fold dilution). For each plate, 6 untreated (merely DMSO) wells were included. The final concentration of DMSO in the culture medium was 2%. Each plate was prepared in duplicate (one for HBV DNA extraction, one for ATPlite measurement). The cells were incubated at 37° C. and 5% CO2 for 3 days.
On day 4, cell viability was assessed using ATPlite and cell lysates were prepared for HBV DNA extraction and subsequent quantification by qPCR.
Medium was removed from each well and 100 μL of 0.33% NP-40 in H2O was added to each well. Plates were sealed, incubated at 4° C. for 5 mins, vortexed extensively and centrifuged briefly. Next, 35 μL of lysate was added to 65 μL QuickExtract DNA Extraction Solution (Epicentre) in a PCR plate for each well. PCR plate was incubated at 65° C. for 6 mins, 98° C. for 2 mins and finally cooled to 4° C. HBV DNA was then quantified by qPCR with HBV-specific primers and probes as specified in Table 3 using the Bio-Rad SSOAdvanced Universal Probes Supermix on a CFX96 machine (Bio-Rad). The PCR cycle program consisted of 95° C. for 3 mins, followed by 40 cycles at 95° C. for 10 sec and 60° C. for 30 sec.
A DNA standard was prepared by dilution of an IDT gBlock corresponding to the amplicon with concentrations ranging from 10^2 to 10^8 copies/input (i.e. per 4 μL) and used to generate a standard curve by plotting Cq values vs. HBV DNA standard concentration. The quantity of HBV DNA in each sample was determined by interpolating from the standard curve.
Cell viability was calculated as follows: % Cell viability=(luminescence value of test sample)/(average luminescence value of 2% DMSO control)×100%. HBV DNA inhibition was calculated as follows: 100−(HBV DNA copy number of test sample)/(average HBV DNA copy number of 2% DMSO control)×100%. No normalization to entecavir was required due to the excellent dynamic window of this assay. The CC50, EC50 and EC90 values were determined by dose-response curves fitted by GraphPad Prism using “log (agonist) vs. response—Variable slope”.

SMILES: CC(NC(=O)c1c2n(c(=O)n1-c1ccc(OC3CC3)cc1)CCN(C(=O)c1ccc(Br)c(Cl)c1)C2)c1ccccc1 (racemic) [Example 179, 7-(4-bromo-3-chloro-benzoyl)-2-[4-(cyclopropoxy)phenyl]-3-oxo-N-[rac-(1R)-1-phenylethyl]-6,8-dihydro-5H-imidazo[1,5-a]pyrazine-1-carboxamide]
- EC50: 100 to 500 nM

SMILES: C[C@@H](NC(=O)c1[nH]c(=O)n2c1CN(C(=O)c1ccc(Br)c(Cl)c1)CC2)c1ccccc1 (racemic) [Example 188, 7-(4-bromo-3-chloro-benzoyl)-3-oxo-N-[rac-(1R)-1-phenylethyl]-2,5,6,8-tetrahydroimidazo[1,5-a]pyrazine-1-carboxamide]
- EC50: 500 to 5000 nM

SMILES: COc1ccc(-n2c(C(=O)NCc3ccccc3)c3n(c2=O)CC(C)N(C(=O)c2ccc(Br)c(Cl)c2)C3)cc1 (racemic) [Example 198, rac-(6R)-N-benzyl-7-(4-bromo-3-chloro-benzoyl)-2-(4-methoxyphenyl)-6-methyl-3-oxo-6,8-dihydro-5H-imidazo[1,5-a]pyrazine-1-carboxamide]
- EC50: 500 to 5000 nM

SMILES: COc1ccc(-n2c(C(=O)NCc3ccccc3)c3n(c2=O)C[C@H](C)N(C(=O)c2ccc(Br)c(Cl)c2)C3)cc1 (racemic) [Example 199, rac-(6S)-N-benzyl-7-(4-bromo-3-chloro-benzoyl)-2-(4-methoxyphenyl)-6-methyl-3-oxo-6,8-dihydro-5H-imidazo[1,5-a]pyrazine-1-carboxamide]
- EC50: 100 to 500 nM

SMILES: COc1ccc(-n2c(C(=O)NC(C(N)=O)c3ccccc3)c3n(c2=O)CCN(C(=O)c2ccc(Br)c(Cl)c2)C3)cc1 (racemic) [Example 206, 7-(4-bromo-3-chloro-benzoyl)-2-(4-methoxyphenyl)-3-oxo-N-[rac-(1R)-2-amino-2-oxo-1-phenyl-ethyl]-6,8-dihydro-5H-imidazo[1,5-a]pyrazine-1-carboxamide]
- EC50: > 5000 nM

SMILES: COc1ccc(-n2c(C(=O)N[C@H](C(N)=O)c3ccccc3)c3n(c2=O)CCN(C(=O)c2ccc(Br)c(Cl)c2)C3)cc1 (racemic) [Example 207, 7-(4-bromo-3-chloro-benzoyl)-2-(4-methoxyphenyl)-3-oxo-N-[rac-(1S)-2-amino-2-oxo-1-phenyl-ethyl]-6,8-dihydro-5H-imidazo[1,5-a]pyrazine-1-carboxamide]
- EC50: > 5000 nM

SMILES: CC(C)Oc1ccc(-n2c(C(=O)NCc3ccccc3)c3n(c2=O)CCN([C@H](c2ccc(Br)c(Cl)c2)C(F)(F)F)C3)cc1 (racemic) [Example 240, N-benzyl-2-(4-isopropoxyphenyl)-3-oxo-7-[rac-(1R)-1-(4-bromo-3-chloro-phenyl)-2,2,2-trifluoro-ethyl]-6,8-dihydro-5H-imidazo[1,5-a]pyrazine-1-carboxamide]
- EC50: > 5000 nM

SMILES: CC(C)Oc1ccc(-n2c(C(=O)NCc3ccccc3)c3n(c2=O)CCN(C(c2ccc(Br)c(Cl)c2)C(F)(F)F)C3)cc1 (racemic) [Example 241, N-benzyl-2-(4-isopropoxyphenyl)-3-oxo-7-[rac-(1S)-1-(4-bromo-3-chloro-phenyl)-2,2,2-trifluoro-ethyl]-6,8-dihydro-5H-imidazo[1,5-a]pyrazine-1-carboxamide]
- EC50: > 5000 nM

SMILES: COC1CCC(n2c(C(=O)N[C@@H](C)c3ccccc3)c3n(c2=O)CCN(C(=O)c2ccc(Br)c(Cl)c2)C3)CC1 (mixture of isomers) [Example 247, 7-(4-bromo-3-chloro-benzoyl)-2-(4-methoxycyclohexyl)-3-oxo-N-[rac-(1S)-1-phenylethyl]-6,8-dihydro-5H-imidazo[1,5-a]pyrazine-1-carboxamide]
- EC50: > 5000 nM

SMILES: COC1CCC(n2c(C(=O)N[C@H](C)c3ccccc3)c3n(c2=O)CCN(C(=O)c2ccc(Br)c(Cl)c2)C3)CC1 (mixture of isomers) [Example 254, 7-(4-bromo-3-chloro-benzoyl)-2-(4-methoxycyclohexyl)-3-oxo-N-[rac-(1R)-1-phenylethyl]-6,8-dihydro-5H-imidazo[1,5-a]pyrazine-1-carboxamide]
- EC50: > 5000 nM

SMILES: COc1ccc(-n2c(C(=O)NCc3ccccc3)c3n(c2=O)C[C@H](C2CC2)N(C(=O)c2ccc(Br)c(Cl)c2)C3)cc1 (racemic) [Example 279, rac-(6S)-N-benzyl-7-(4-bromo-3-chloro-benzoyl)-6-cyclopropyl-2-(4-methoxyphenyl)-3-oxo-6,8-dihydro-5H-imidazo[1,5-a]pyrazine-1-carboxamide]
- EC50: 100 to 500 nM

SMILES: COc1ccc(-n2c(C(=O)NCc3ccccc3)c3n(c2=O)CC(C2CC2)N(C(=O)c2ccc(Br)c(Cl)c2)C3)cc1 (racemic) [Example 280, rac-(6R)-N-benzyl-7-(4-bromo-3-chloro-benzoyl)-6-cyclopropyl-2-(4-methoxyphenyl)-3-oxo-6,8-dihydro-5H-imidazo[1,5-a]pyrazine-1-carboxamide]
- EC50: 100 to 500 nM

SMILES: C[C@@H](NC(=O)c1c2n(c(=O)n1-c1ccc(OCC(F)(F)F)cc1)CCN(C(=O)c1ccc(Br)c(Cl)c1)C2)c1ccc(OC(F)(F)F)cc1F (racemic) [Example 292, 7-(4-bromo-3-chloro-benzoyl)-3-oxo-N-[rac-(1R)-1-[2-fluoro-4-(trifluoromethoxy)phenyl]ethyl]-2-[4-(2,2,2-trifluoroethoxy)phenyl]-6,8-dihydro-5H-imidazo[1,5-a]pyrazine-1-carboxamide]
- EC50: 500 to 5000 nM

SMILES: CC(NC(=O)c1c2n(c(=O)n1-c1ccc(OCC(F)(F)F)cc1)CCN(C(=O)c1ccc(Br)c(Cl)c1)C2)c1ccc(OC(F)(F)F)cc1F (racemic) [Example 293, 7-(4-bromo-3-chloro-benzoyl)-3-oxo-N-[rac-(1S)-1-[2-fluoro-4-(trifluoromethoxy)phenyl]ethyl]-2-[4-(2,2,2-trifluoroethoxy)phenyl]-6,8-dihydro-5H-imidazo[1,5-a]pyrazine-1-carboxamide]
- EC50: 500 to 5000 nM

SMILES: C[C@H](NC(=O)c1c2n(c(=O)n1-c1ccc(OCC(F)(F)F)cc1)CCN(C(=O)c1ccc(Br)c(Cl)c1)C2)c1ccc(C#N)cc1F (racemic) [Example 299, 7-(4-bromo-3-chloro-benzoyl)-3-oxo-N-[rac-(1R)-1-(4-cyano-2-fluoro-phenyl)ethyl]-2-[4-(2,2,2-trifluoroethoxy)phenyl]-6,8-dihydro-5H-imidazo[1,5-a]pyrazine-1-carboxamide]
- EC50: 500 to 5000 nM

SMILES: CC1Cn2c(c(C(=O)NCc3ccccc3)n(-c3ccc(OC4CC4)cc3)c2=O)CN1C(=O)c1ccc(Br)c(Cl)c1 (racemic) [Example 301, rac-(6R)-N-benzyl-7-(4-bromo-3-chloro-benzoyl)-2-[4-(cyclopropoxy)phenyl]-6-methyl-3-oxo-6,8-dihydro-5H-imidazo[1,5-a]pyrazine-1-carboxamide]
- EC50: 500 to 5000 nM

SMILES: C[C@H]1Cn2c(c(C(=O)NCc3ccccc3)n(-c3ccc(OC4CC4)cc3)c2=O)CN1C(=O)c1ccc(Br)c(Cl)c1 (racemic) [Example 302, rac-(6S)-N-benzyl-7-(4-bromo-3-chloro-benzoyl)-2-[4-(cyclopropoxy)phenyl]-6-methyl-3-oxo-6,8-dihydro-5H-imidazo[1,5-a]pyrazine-1-carboxamide]
- EC50: 100 to 500 nM

SMILES: C[C@@H](NC(=O)c1c2n(c(=O)n1-c1ccc(OC3CC3)cc1)CCN(C(=O)c1ccc(Br)c(Cl)c1)C2)c1ccc(OC(F)F)cc1F (racemic) [Example 313, 7-(4-bromo-3-chloro-benzoyl)-2-[4-(cyclopropoxy)phenyl]-3-oxo-N-[rac-(1R)-1-[4-(difluoromethoxy)-2-fluoro-phenyl]ethyl]-6,8-dihydro-5H-imidazo[1,5-a]pyrazine-1-carboxamide]
- EC50: 100 to 500 nM

SMILES: CC(NC(=O)c1c2n(c(=O)n1-c1ccc(OC3CC3)cc1)CCN(C(=O)c1ccc(Br)c(Cl)c1)C2)c1ccc(OC(F)F)cc1F (racemic) [Example 314, 7-(4-bromo-3-chloro-benzoyl)-2-[4-(cyclopropoxy)phenyl]-3-oxo-N-[rac-(1S)-1-[4-(difluoromethoxy)-2-fluoro-phenyl]ethyl]-6,8-dihydro-5H-imidazo[1,5-a]pyrazine-1-carboxamide]
- EC50: 100 to 500 nM

SMILES: CC1Cn2c(c(C(=O)N[C@H](C)c3ccccc3F)n(-c3ccc(OC4CC4)cc3)c2=O)CN1C(=O)c1ccc(Br)c(Cl)c1 (mixture of isomers) [Example 321, (6RS)-7-(4-bromo-3-chloro-benzoyl)-2-[4-(cyclopropoxy)phenyl]-N-[(1R)-1-(2-fluorophenyl)ethyl]-6-methyl-3-oxo-6,8-dihydro-5H-imidazo[1,5-a]pyrazine-1-carboxamide]
- EC50: 500 to 5000 nM

— patent publication US11591341B2 (ALIGOS THERAPEUTICS, INC., priority 2019, dated 2023)
